Data as given in patent US20160331662A1, “Compositions that Inhibit and Prevent the Formation of Dental Caries and Methods of Using the Same” (priority 2014, published 2016).

Legend:
iSRCR1 = target: T1, iSRCR1 (Homo sapiens, UniProt Q9UGM3); assay: SPR binding of analytes to immobilized iSRCR1 (CM5 chip, 1:1 Langmuir); settings: substance alone over CM5 chip
T1 construct: strongly proves that a single SRCR domain contains the adherence sites for AgI/II and SspB; made in house; host or cells: Drosophila expression system
Experimental: (§1) Real time binding analyses of the SRCR domains with AgI/II fragments were carried out using the BIAcore 2000 system. […] Self association of iSRCR1 or iSRCR123 (at 2 μM) were also determined in a similar manner as described above. Finally to determine the effect of calcium SPR analysis was carried out by dialyzing the analytes and ligands in binding buffer devoid of CaCl2.
(§2) In addition, the SRCR holding two distinct surfaces compounded the elucidation of individual kinetics, and presently there are no modeling protocols available to determine the individual affinities for such a system, therefore for simplicity we have utilized a single site 1:1 Langmuir model. All experiments were carried out in triplicates and the kinetics of the association (KA) and dissociation (KD) rate constants were deduced using the 1:1 Langmuir Kinetic model on the BIA-Evaluation software. The concentration (C in μM) of analyte (FL^AgI/II or FL^SspB at 2 μM) that adhered to the immobilized ligand (iSRCR1, iSRCR123) within the flow cell was calculated using the formula C=(RU/MW)×(1/V), where RU is resonance unit (1 RU=1 pg of bound protein), MW is molecular weight of analyte and V is volume of flow cell (1.2×10^−10 L).

iSRCR123 = target: T2, iSRCR123 (Homo sapiens, UniProt Q9UGM3); assay: SPR binding of analytes to immobilized iSRCR123 (CM5 chip, 1:1 Langmuir); settings: substance alone over CM5 chip
T2 construct: multiple SRCR domains have better adherence capability compared to that of a single SRCR domain; made in house; host or cells: Drosophila expression system
Experimental: as §1, §2

S. gordonii DL1 = assay: Aggregation assay (OD700 over 60 min); format: cell-based
Experimental: (§3) Aggregation assays were performed as described earlier with slight modifications. Briefly, S. mutans UA159 and S. gordonii DL1 cells were grown in TSY broth media overnight at 37° C. in the presence of 5% CO2. The bacteria were centrifuged at 5000×g and washed with a buffer containing 20 mM HEPES pH 7.4, 150 mM NaCl and re-suspended to an approximate OD700 of 1. The bacterial suspension (900 μl) was mixed with 100 μl of SAG or iSRCR1 (10 μM) or iSRCR123 ([…]) or commercially synthesized (Think Peptides, Inc) SRCRP2 peptide with fluorescein amidite (FAM) at the carboxyl end ([…]-[FAM]) (SEQ ID NO:9, at both 400 μg/ml and 1 mg/ml) in the presence of 6 mM CaCl2 and aggregation was measured by recording OD700over 60 min at 5 min intervals, where the buffer alone was used as control. All experiments were carried out at least five times, and the results were analyzed with One-way ANOVA. Post-hoc testing where *, P<0.05 was considered statistically significant and results were presented as the percentage of cells aggregated.

S. mutans UA159 = assay: Aggregation assay (OD700 over 60 min); format: cell-based
Experimental: as §3

[1] = test system: adhesion of AgI/II of S. mutans to iSRCR1; assay: Adherence/inhibition SPR: AgI/II fragments on immobilized iSRCR1; format: binding; settings: 0.005 mM peptide; 2 μM protein
Experimental: (§4) Carbohydrates Galβ1-3-GalNac and Mannose (identified from glycan profile analysis) at different concentrations (0.010, 0.050, 0.1, 0.5 and 1 mM) were incubated with 2 μM of each FL, A3VP1 and C123 of AgI/II and SspB and the interaction with immobilized iSRCR1 and iSRCR123 with running buffer containing 20 mM HEPES, 150 mM NaCl and 2.5 mM CaCl2, pH 7.4 at 25° C. and with flow rate of 20 μl/min was analyzed. Direct adherence of these carbohydrates alone served as the control and all calculations were carried out using the BIAevaluation software. Using the same protocol above at varying concentrations the effect of SRCRP2 peptide on the adherence inhibition was assessed.

[2] = target: T3, adhesion of SspB of S. gordonii to iSRCR1 (Streptococcus gordonii, UniProt A8AUS1); format: binding; settings: 0.005 mM peptide; 2 μM protein
T3 construct: made in house; host or cells: pET23d vector
Experimental: as §4

[3] = test system: adhesion of AgI/II of S. mutans to iSRCR123; assay: Adherence/inhibition SPR: AgI/II fragments on immobilized iSRCR123; format: binding; settings: 0.005 mM peptide; 2 μM protein
Experimental: as §4

[4] = test system: adhesion of SspB of S. gordonii to iSRCR123; assay: Adherence/inhibition SPR: SspB fragments on immobilized iSRCR123; format: binding; settings: 0.005 mM peptide; 2 μM protein
Experimental: as §4

AgI/II of S. mutans = target: T4, AgI/II of S. mutans (Streptococcus mutans serotype c, UniProt P23504); assay: ELISA binding of fluorescent tagged SRCRP2 peptide; settings: FAM-labelled peptide
T4 construct: Recombinant full length (FL) constructs of surface proteins (homologs of AgI/II) AgI/II, SspB, Pas; made in house

SspB of S. gordonii = SspB of S. gordonii (Streptococcus gordonii, UniProt A8AUS1); settings: FAM-labelled peptide
[5] = peptide at lower concentration (400 μg/ml)

T2 sequence (Q9UGM3 102-463 limits assumed): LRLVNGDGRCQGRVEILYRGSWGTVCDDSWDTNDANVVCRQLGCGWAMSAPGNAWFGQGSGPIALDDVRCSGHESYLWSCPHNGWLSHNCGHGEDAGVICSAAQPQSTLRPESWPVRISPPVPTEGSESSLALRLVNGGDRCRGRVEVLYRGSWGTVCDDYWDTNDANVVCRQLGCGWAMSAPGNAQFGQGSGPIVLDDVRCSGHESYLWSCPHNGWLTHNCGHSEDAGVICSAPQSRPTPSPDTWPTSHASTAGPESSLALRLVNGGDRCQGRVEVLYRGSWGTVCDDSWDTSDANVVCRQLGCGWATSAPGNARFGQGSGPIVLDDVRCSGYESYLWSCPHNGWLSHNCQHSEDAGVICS
T4 sequence (P23504 39-1562): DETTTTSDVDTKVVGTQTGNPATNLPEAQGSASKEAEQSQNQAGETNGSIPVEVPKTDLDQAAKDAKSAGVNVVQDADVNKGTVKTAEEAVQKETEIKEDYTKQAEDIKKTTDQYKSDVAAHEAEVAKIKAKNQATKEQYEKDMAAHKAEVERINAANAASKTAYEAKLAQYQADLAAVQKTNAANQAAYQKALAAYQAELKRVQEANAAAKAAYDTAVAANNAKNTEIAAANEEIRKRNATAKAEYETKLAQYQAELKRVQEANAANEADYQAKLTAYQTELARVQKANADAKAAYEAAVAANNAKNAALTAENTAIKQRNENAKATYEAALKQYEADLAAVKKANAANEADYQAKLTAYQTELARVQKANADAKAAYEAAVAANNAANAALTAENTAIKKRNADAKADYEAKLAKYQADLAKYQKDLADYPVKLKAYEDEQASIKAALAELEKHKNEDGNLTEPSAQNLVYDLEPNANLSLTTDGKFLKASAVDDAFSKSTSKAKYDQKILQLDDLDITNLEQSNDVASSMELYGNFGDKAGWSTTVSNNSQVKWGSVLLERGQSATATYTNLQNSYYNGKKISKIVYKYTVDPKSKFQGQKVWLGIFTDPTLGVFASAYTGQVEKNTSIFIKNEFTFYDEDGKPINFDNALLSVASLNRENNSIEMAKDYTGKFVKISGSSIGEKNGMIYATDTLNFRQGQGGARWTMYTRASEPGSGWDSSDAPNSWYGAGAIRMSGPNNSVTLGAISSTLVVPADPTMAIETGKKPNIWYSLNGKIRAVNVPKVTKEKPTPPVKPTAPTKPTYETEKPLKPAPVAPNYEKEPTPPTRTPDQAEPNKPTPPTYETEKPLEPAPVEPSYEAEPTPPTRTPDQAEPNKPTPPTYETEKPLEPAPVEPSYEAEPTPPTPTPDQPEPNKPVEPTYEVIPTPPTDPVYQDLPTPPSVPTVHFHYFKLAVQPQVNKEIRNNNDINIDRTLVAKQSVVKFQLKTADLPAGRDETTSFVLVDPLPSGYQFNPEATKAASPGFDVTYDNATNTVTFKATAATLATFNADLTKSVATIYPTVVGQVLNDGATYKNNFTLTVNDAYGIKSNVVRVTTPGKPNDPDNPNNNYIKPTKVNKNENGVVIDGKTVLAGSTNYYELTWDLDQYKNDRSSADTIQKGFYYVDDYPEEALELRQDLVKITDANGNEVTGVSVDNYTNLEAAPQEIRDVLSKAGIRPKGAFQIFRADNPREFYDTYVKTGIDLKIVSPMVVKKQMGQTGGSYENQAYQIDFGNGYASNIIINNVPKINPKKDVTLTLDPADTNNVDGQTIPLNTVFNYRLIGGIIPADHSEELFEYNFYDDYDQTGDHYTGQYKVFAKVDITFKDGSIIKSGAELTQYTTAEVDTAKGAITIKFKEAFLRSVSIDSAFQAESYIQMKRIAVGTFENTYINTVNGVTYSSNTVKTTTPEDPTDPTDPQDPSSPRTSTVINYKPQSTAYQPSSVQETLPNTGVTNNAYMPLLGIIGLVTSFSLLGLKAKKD
T1 sequence (Q9UGM3 102-202 limits assumed): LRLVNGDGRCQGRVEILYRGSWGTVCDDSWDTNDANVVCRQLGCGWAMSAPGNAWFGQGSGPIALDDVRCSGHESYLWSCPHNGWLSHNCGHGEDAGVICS
Sequence of SspB of S. gordonii (A8AUS1 39-1433): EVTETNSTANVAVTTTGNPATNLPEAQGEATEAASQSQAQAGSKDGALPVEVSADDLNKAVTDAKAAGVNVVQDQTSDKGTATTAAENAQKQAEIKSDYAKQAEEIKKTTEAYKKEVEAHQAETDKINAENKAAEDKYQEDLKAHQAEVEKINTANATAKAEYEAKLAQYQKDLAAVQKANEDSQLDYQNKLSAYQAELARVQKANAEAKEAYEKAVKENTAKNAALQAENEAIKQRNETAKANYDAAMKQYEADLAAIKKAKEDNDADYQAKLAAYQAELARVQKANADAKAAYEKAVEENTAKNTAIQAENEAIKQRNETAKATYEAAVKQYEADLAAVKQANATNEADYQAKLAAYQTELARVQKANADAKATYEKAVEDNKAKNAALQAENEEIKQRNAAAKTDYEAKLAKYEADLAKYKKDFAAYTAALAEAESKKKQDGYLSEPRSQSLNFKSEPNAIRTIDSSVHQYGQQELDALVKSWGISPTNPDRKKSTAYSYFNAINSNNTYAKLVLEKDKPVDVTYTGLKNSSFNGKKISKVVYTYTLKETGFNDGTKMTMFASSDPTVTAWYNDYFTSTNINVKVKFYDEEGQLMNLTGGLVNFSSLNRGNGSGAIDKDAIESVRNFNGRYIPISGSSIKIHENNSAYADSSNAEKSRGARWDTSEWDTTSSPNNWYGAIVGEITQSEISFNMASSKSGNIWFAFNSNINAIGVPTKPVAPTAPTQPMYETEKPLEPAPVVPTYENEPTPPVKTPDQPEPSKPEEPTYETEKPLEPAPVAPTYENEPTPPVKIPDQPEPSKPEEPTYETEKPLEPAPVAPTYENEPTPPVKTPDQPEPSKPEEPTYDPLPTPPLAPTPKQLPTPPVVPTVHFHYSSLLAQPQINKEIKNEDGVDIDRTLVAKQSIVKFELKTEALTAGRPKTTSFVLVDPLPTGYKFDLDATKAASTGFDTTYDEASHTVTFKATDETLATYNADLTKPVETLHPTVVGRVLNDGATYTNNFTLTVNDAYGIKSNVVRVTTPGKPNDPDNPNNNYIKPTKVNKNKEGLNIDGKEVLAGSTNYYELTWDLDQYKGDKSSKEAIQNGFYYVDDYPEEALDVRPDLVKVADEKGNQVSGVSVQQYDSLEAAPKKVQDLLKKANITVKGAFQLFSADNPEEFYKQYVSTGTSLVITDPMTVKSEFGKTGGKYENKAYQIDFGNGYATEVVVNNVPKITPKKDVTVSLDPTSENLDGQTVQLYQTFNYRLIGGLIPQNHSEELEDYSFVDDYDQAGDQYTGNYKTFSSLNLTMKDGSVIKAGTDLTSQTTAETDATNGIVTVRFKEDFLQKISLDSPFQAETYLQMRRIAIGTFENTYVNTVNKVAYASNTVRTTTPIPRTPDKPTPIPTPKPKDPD

**Q.** For “QGRVEVLYRGSWGTVC [SRCRP2 peptide, reference compound]”, which “direct binding to immobilized iSRCR1 (in words)” value (iSRCR1) is on record?
**A.** did not show any binding

**Q.** What about the “direct binding to immobilized iSRCR123 (in words)” value (iSRCR123) of the same sequence?
**A.** did not show any binding

**Q.** What about the “percentage of cells aggregated” value (S. gordonii DL1; peptide 1 mg/ml) of the same sequence?
**A.** 12%

**Q.** And the “percentage of cells aggregated” value (S. gordonii DL1; [5])?
**A.** 11%

**Q.** And the “percentage of cells aggregated” value (S. mutans UA159; peptide 1 mg/ml)?
**A.** 18%

**Q.** What about the “percentage of cells aggregated” value (S. mutans UA159; [5]) of the same sequence?
**A.** 12%

**Q.** And the “change in adherence of C123^AgI/II to iSRCR1” value [1]?
**A.** 2.3%

**Q.** What about the “improvement of adherence of A3VP1^AgI/II to iSRCR1” value [1] of the same sequence?
**A.** 13%

**Q.** What about the “improvement of adherence of FL^AgI/II to iSRCR1” value [1] of the same sequence?
**A.** 8%

**Q.** And the “change in adherence of A3VP1^SspB to iSRCR1” value [2]?
**A.** 3%

**Q.** What about the “change in adherence of C123^SspB to iSRCR1” value [2] of the same sequence?
**A.** 4%

**Q.** What about the “improvement of adherence of FL^SspB to iSRCR1” value [2] of the same sequence?
**A.** 97%

**Q.** And the “change in adherence of C123^AgI/II to iSRCR123” value [3]?
**A.** 7%

**Q.** What about the “improvement of adherence of A3VP1^AgI/II to iSRCR123” value [3] of the same sequence?
**A.** 16%

**Q.** What about the “improvement of adherence of FL^AgI/II to iSRCR123” value [3] of the same sequence?
**A.** 8%

**Q.** What about the “change in adherence of A3VP1^SspB to iSRCR123” value [4] of the same sequence?
**A.** 3%

**Q.** And the “change in adherence of C123^SspB to iSRCR123” value [4]?
**A.** 5%

**Q.** And the “improvement of adherence of FL^SspB to iSRCR123” value [4]?
**A.** 91%

**Q.** What about the “adherence to AgI/II and its subfragments by ELISA (in words)” value (AgI/II of S. mutans) of the same sequence?
**A.** adheres well

**Q.** And the “adherence to SspB and its subfragments by ELISA (in words)” value (SspB of S. gordonii)?
**A.** adheres well
